The values that follow come from US10479786B2, “Protein kinase inhibitors” (Princeton Drug Discovery Inc, priority 2016, dated 2019).

Common to all, as to assay: Off-chip Mobility Shift Assay, kinase inhibition
What all share (type): biochemical

One experiment concerns the target T1, KIT(D816Y) (Homo sapiens, UniProt P10721, D816Y).
T1 construct: purchased Carna Biosciences, Inc
Particulars: at 10 nM; recombinant KIT(D816Y).

A further experiment concerns the target T2, PDGFRα(V561D) (Homo sapiens, UniProt P16234, V561D).
T2 construct: purchased Carna Biosciences, Inc
Particulars: at 10 nM; recombinant PDGFRα(V561D).

The target in another experiment is T3, DDR1 (Homo sapiens, UniProt Q08345).
T3 construct: purchased Carna Biosciences, Inc
Conditions: at 10 nM; recombinant DDR1.

The target of another experiment is T4, KIT(V654A) (Homo sapiens, UniProt P10721, V654A).
T4 construct: purchased Carna Biosciences, Inc
Particulars: at 10 nM; recombinant KIT(V654A).

The next experiment has as its target T5, EGFR(L861Q) (Homo sapiens, UniProt P00533, L861Q).
T5 construct: purchased Carna Biosciences, Inc
Particulars: at 10 nM; recombinant EGFR(L861Q).

In the next experiment the target is T6, EGFR(d746-750) (Homo sapiens, UniProt P00533, DEL746-750).
T6 construct: purchased Carna Biosciences, Inc
T6 sequence (P00533 with tags, fused parts or gaps DEL746-750 limits assumed): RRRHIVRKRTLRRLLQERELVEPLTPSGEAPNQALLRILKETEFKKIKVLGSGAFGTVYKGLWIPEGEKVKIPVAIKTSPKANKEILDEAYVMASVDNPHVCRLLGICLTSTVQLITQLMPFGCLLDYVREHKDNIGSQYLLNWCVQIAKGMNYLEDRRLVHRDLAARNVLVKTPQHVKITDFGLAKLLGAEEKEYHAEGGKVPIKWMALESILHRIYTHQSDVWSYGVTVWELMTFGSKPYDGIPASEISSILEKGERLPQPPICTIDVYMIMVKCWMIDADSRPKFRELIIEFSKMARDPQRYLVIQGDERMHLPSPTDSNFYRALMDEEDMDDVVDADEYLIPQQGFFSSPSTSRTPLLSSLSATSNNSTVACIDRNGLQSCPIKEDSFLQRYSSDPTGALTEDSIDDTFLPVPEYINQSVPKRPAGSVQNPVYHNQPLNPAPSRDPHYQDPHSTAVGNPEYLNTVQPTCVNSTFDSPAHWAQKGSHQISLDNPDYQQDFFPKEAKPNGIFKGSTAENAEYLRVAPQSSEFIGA
Particulars: at 10 nM; recombinant EGFR(d746-750).

For another experiment, the target named is T7, JAK1 (Homo sapiens, UniProt P23458).
T7 construct: purchased Carna Biosciences, Inc
Particulars: at 10 nM; recombinant JAK1.

The next experiment deals with T8, RET (Homo sapiens, UniProt P07949).
T8 construct: purchased Carna Biosciences, Inc
T8 sequence (P07949 29-1114): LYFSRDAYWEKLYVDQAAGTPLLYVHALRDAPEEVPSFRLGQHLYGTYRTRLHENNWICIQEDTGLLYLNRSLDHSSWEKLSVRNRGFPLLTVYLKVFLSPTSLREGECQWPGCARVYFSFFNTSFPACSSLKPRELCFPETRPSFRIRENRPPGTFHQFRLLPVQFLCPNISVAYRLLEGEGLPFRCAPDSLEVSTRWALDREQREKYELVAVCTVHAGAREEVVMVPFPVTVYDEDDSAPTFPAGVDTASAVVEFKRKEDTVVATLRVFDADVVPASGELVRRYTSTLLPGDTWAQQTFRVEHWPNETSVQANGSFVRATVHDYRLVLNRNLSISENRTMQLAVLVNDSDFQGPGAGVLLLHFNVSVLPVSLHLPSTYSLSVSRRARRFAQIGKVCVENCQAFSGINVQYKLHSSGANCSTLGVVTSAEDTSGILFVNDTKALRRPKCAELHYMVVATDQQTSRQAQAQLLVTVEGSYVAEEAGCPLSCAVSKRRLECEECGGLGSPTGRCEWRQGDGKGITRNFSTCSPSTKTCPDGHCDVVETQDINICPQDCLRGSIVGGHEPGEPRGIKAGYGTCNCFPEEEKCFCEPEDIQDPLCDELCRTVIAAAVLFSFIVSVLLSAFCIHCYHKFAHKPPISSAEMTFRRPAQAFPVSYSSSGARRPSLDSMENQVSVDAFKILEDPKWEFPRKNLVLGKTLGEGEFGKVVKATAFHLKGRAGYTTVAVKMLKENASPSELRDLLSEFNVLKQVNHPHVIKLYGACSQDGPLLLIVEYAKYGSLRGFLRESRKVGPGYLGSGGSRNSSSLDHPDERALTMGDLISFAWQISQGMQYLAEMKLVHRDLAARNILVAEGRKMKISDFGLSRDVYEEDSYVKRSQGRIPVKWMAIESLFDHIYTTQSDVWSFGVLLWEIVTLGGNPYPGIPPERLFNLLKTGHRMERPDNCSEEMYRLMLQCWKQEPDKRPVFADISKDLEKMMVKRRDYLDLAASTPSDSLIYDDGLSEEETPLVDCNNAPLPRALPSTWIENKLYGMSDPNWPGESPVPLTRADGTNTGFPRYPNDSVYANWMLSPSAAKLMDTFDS
Conditions: at 10 nM; recombinant RET.

The target in the next experiment is T9, RET(S891A) (Homo sapiens, UniProt P07949, S891A).
T9 construct: purchased Carna Biosciences, Inc
T9 sequence (P07949 29-1114 S891A): as the sequence (P07949 29-1114) above, with S863A counted along it
Conditions: at 10 nM; recombinant RET(S891A).

The target in the next experiment is T10, FGFR3 (Homo sapiens, UniProt P22607).
T10 construct: purchased Carna Biosciences, Inc
Particulars: at 10 nM; recombinant FGFR3.

A further experiment has as its target T11, WNK3 (Homo sapiens, UniProt Q9BYP7).
T11 construct: purchased Carna Biosciences, Inc
Particulars: at 10 nM; recombinant WNK3.

Another experiment addresses T12, RET(Y791F) (Homo sapiens, UniProt P07949, Y791F).
T12 construct: purchased Carna Biosciences, Inc
Particulars: at 10 nM; recombinant RET(Y791F).

A further experiment has as its target T13, BRAF(V600E) (Homo sapiens, UniProt P15056, V600E).
T13 construct: purchased Carna Biosciences, Inc
Particulars: at 10 nM; recombinant BRAF(V600E).

The target of a further experiment is T14, ROCK1 (Homo sapiens, UniProt Q13464).
T14 construct: purchased Carna Biosciences, Inc
Conditions: at 10 nM; recombinant ROCK1.

The target in a further experiment is T15, AurA (Homo sapiens, UniProt O14965).
T15 construct: purchased Carna Biosciences, Inc
Particulars: at 10 nM; recombinant AurA.

For another experiment, the target named is T16, MAP2K2 (Homo sapiens, UniProt P36507).
T16 construct: purchased Carna Biosciences, Inc
Conditions: at 10 nM; recombinant MAP2K2.

For another experiment, the target named is T17, FGFR2 (Homo sapiens, UniProt P21802).
T17 construct: purchased Carna Biosciences, Inc
T17 sequence (P21802 22-821): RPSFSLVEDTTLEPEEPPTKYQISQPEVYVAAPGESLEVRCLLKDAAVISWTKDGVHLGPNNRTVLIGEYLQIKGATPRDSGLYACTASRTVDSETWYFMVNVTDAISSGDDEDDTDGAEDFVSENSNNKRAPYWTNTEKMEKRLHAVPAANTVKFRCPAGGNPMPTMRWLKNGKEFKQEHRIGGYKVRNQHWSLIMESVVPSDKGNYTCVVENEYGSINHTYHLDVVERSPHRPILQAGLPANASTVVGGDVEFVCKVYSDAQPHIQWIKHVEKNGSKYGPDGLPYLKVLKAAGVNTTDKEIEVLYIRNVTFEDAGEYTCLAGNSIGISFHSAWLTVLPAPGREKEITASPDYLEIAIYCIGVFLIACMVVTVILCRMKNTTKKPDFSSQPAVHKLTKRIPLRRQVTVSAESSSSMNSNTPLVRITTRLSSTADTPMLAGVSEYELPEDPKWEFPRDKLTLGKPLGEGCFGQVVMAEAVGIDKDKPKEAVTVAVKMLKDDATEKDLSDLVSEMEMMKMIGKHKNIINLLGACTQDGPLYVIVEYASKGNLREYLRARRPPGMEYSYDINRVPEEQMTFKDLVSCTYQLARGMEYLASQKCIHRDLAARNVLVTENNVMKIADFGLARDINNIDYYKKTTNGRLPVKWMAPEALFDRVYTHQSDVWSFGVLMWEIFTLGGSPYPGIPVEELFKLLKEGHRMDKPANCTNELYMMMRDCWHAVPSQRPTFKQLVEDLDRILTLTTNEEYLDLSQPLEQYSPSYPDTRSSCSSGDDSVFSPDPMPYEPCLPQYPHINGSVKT
Conditions: at 10 nM; recombinant FGFR2.

In another experiment the target is T18, Erk1 (Homo sapiens, UniProt P27361).
T18 construct: purchased Carna Biosciences, Inc
Particulars: at 10 nM; recombinant Erk1.

The target in a further experiment is T19, EGFR(T790M) (Homo sapiens, UniProt P00533, T790M).
T19 construct: purchased Carna Biosciences, Inc
Conditions: at 10 nM; recombinant EGFR(T790M).

The next experiment has as its target T20, RET(G691 S) (Homo sapiens, UniProt P07949, G691S).
T20 construct: purchased Carna Biosciences, Inc
Conditions: at 10 nM; recombinant RET(G691 S).

For a further experiment, the target named is T21, PDGFRα(T674I) (Homo sapiens, UniProt P16234, T674I).
T21 construct: purchased Carna Biosciences, Inc
T21 sequence (P16234 24-1089 T674I): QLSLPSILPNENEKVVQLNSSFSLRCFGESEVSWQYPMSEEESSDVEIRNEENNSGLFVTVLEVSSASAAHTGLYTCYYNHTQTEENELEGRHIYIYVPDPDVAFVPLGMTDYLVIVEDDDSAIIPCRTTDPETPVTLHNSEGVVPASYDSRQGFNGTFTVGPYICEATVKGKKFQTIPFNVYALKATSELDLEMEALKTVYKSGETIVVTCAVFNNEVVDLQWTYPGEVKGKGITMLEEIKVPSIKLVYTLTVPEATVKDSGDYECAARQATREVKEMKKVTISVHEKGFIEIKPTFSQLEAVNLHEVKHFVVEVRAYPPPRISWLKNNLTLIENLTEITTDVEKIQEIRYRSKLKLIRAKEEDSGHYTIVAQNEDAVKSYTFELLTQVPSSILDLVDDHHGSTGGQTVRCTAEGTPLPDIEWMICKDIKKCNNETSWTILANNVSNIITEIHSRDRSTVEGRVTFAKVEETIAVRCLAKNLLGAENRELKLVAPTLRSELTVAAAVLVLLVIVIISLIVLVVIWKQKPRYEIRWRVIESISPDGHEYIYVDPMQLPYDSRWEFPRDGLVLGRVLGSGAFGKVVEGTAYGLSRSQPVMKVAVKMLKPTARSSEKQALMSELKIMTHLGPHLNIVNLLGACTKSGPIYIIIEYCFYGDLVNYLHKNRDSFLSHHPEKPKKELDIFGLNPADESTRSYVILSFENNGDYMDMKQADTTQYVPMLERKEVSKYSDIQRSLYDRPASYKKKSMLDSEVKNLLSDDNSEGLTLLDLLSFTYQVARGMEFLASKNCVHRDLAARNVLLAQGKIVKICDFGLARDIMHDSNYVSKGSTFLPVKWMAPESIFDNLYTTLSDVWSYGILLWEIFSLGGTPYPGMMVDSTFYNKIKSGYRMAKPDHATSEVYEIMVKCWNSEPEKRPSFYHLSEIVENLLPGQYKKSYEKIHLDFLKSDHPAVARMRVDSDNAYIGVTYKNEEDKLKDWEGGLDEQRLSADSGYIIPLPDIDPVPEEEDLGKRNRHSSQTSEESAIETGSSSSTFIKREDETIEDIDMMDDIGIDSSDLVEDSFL
Particulars: at 10 nM; recombinant PDGFRα(T674I).

A further experiment deals with T22, JAK3 (Homo sapiens, UniProt P52333).
T22 construct: purchased Carna Biosciences, Inc
Particulars: at 10 nM; recombinant JAK3.

The next experiment addresses T23, MAP2K1 (Homo sapiens, UniProt Q02750).
T23 construct: purchased Carna Biosciences, Inc
Particulars: at 10 nM; recombinant MAP2K1.

The next experiment has as its target T24, EGFR(T790M/L858R) (Homo sapiens, UniProt P00533, L858R/T790M).
T24 construct: purchased Carna Biosciences, Inc
Conditions: at 10 nM; recombinant EGFR(T790M/L858R).

The target in a further experiment is T25, FLT1 (Homo sapiens, UniProt P17948).
T25 construct: purchased Carna Biosciences, Inc
Particulars: at 10 nM; recombinant FLT1.

The target in a further experiment is T26, MET (Homo sapiens, UniProt P08581).
T26 construct: purchased Carna Biosciences, Inc
Particulars: at 10 nM; recombinant MET.

In another experiment the target is T27, skMLCK (Homo sapiens, UniProt Q9H1R3).
T27 construct: purchased Carna Biosciences, Inc
Particulars: at 10 nM; recombinant skMLCK.

In the next experiment the target is T28, MNK1 (Homo sapiens, UniProt Q9BUB5).
T28 construct: purchased Carna Biosciences, Inc
T28 sequence (Q9BUB5 whole entry): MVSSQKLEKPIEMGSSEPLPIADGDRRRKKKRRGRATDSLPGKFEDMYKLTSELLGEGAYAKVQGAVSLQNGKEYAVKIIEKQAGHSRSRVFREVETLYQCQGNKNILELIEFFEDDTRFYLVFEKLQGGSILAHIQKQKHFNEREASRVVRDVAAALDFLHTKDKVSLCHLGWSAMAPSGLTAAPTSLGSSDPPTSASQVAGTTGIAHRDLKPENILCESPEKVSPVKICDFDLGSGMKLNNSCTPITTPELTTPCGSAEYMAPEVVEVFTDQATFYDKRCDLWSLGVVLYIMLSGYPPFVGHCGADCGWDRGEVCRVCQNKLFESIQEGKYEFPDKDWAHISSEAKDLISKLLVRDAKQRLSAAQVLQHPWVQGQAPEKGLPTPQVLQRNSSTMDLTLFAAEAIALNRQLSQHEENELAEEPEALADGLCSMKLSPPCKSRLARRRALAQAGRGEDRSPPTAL
Particulars: at 10 nM; recombinant MNK1.

Another experiment deals with T29, MST1 (Homo sapiens, UniProt Q13043).
T29 construct: purchased Carna Biosciences, Inc
Particulars: at 10 nM; recombinant MST1.

Another experiment concerns the target T30, FGFR1 (Homo sapiens, UniProt P11362).
T30 construct: purchased Carna Biosciences, Inc
Particulars: at 10 nM; recombinant FGFR1.

A further experiment addresses T31, ITK (Homo sapiens, UniProt Q08881).
T31 construct: purchased Carna Biosciences, Inc
Particulars: at 1 nM; recombinant ITK.

The target of the next experiment is T32, ABL(T315I) (Homo sapiens, UniProt P00519, T315I).
T32 construct: purchased Carna Biosciences, Inc
Conditions: at 1 nM; recombinant ABL(T315I).

Where only a bound is given, the exact number is not on record here.

T13 sequence (P15056 whole entry V600E): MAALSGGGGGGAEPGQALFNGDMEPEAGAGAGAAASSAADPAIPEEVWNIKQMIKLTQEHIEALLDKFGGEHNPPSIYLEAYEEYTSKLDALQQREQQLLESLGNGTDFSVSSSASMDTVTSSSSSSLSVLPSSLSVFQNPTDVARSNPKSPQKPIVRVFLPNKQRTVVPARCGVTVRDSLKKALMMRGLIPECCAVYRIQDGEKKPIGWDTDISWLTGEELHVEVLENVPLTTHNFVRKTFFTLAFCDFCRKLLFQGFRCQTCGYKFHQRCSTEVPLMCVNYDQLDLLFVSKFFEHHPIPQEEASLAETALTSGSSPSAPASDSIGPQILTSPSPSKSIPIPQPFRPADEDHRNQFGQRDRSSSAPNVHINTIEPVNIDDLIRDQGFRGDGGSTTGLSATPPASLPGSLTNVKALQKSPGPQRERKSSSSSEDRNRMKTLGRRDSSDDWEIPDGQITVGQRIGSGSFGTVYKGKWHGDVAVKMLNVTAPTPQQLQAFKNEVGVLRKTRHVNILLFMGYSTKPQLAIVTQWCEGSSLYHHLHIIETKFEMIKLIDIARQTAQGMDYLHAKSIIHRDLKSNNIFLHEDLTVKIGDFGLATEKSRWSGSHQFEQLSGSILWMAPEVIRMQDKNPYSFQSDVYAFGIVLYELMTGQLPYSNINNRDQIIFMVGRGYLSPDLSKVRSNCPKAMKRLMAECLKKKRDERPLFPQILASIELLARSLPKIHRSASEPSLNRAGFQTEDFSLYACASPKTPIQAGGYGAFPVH
T20 sequence (P07949 29-1114 G691S): as the sequence (P07949 29-1114) above, with G663S counted along it
T2 sequence (P16234 24-1089 V561D): as the sequence (P16234 24-1089 T674I) above, with V538D, I651T counted along it
T12 sequence (P07949 29-1114 Y791F): as the sequence (P07949 29-1114) above, with Y763F counted along it

A word on the inhibition: it is the share of the control response that was lost under treatment. Take `[2H]c1cc(C)c(NC(=O)c2cnc(Nc3cc(N4CCCCC4)nc(C)n3)s2)c(Cl)c1` [Compound I, N-(2-chloro-4-deuterio-6-methyl-phenyl)-2-[[2-methyl-6-(1-piperidyl)pyrimidin-4-yl]amino]thiazole-5-carboxamide]: the inhibition at 0.01 µM on KIT(D816Y) was more than 50%; at PDGFRα(V561D), less than 50%; at DDR1, less than 50%; on KIT(V654A) it was less than 50%; on EGFR(L861Q), less than 50%; on EGFR(d746-750) it was less than 50%. Further, the inhibition at 0.01 µM on JAK1, on RET, on RET(S891A), on FGFR3, on WNK3 and at RET(Y791F) was less than 50% throughout. Moreover, the inhibition at 0.01 µM at BRAF(V600E), on ROCK1, at AurA, at MAP2K2, on FGFR2 and on Erk1 was less than 50% throughout. The inhibition at 0.01 µM at EGFR(T790M), on RET(G691 S), at PDGFRα(T674I), on JAK3, at MAP2K1 and on EGFR(T790M/L858R) was less than 50% throughout. Besides, the inhibition at 0.01 µM at FLT1, at MET, on skMLCK, at MNK1, at MST1 and at FGFR1 was less than 50% each time.
In the case of `[2H]c1cc(C)c(NC(=O)c2cnc(Nc3cc(N4CCC(O)CC4)nc(C)n3)s2)c(Cl)c1` [Compound II, N-(2-chloro-4-deuterio-6-methyl-phenyl)-2-[[6-(4-hydroxy-1-piperidyl)-2-methyl-pyrimidin-4-yl]amino]thiazole-5-carboxamide], the inhibition at 0.001 µM on ITK and on ABL(T315I) was less than 50% in each case.
